From patent publication US20080274057A1, “Staudinger Reaction in Imaging and Therapy and Kits for Use in Imaging and Therapy” (KONINKLIJKE PHILIPS ELECTRONICS, N.V., priority 2005, published 2008)
Like-named read-outs stand apart in the source and are kept apart here.

Assays:
A431 cells = conditions: for anti-proliferative activity (ranking): 72 hours incubation, ranking among pro-dox, pro-dox plus phosphine, and doxorubicin
Protocol: 12) Cell proliferation assay using A431 cells with prodrug 9 (pro-dox) in situ activated by triphenylphosphine.
The in vitro anti-cancer activity of prodrug 9 (pro-dox) was assessed by means of cytotoxicity assays. For these cellular experiments the A431 cell line was used. […] The addition of the prodrug in combination with phosphine should lead to a reduction in proliferation compared to the addition of pro-dox without phosphine, due to the release of doxorubicin by means of the staudinger reaction.
Cells were maintained at 37° C. in DMEM (InVitrogen), supplemented with 10% heat-inactivated fetal bovine serum and 0.05% glutamax (InVitrogen) in the presence of penicillin and streptomycin.
Doxorubicin (Toronto Research Chemicals) and pro-dox (9) were, prior to each experiment, freshly dissolved in DMF at 10 mM and subsequently serial diluted in pre-warmed culture medium. Triphenylphosphine-3,3′,3″-trisulfonic acid trisodium salt (Sigma) was dissolved in PBS at 10 mM and serial diluted in pre-warmed medium. Methylthiazolyldiphenyl-tetrazolium bromide, MTT (Sigma) was used as described by the manufacturer.
Cells were plated out in a 96 well plate (Nunc) at a density of 7500 cells/well, followed by addition of reagents the next day. After 72 hours incubation cell proliferation was assessed by means of a MTT assay. Briefly, MTT was dissolved in pre-warmed medium at 5 mg/ml, passed through a 0.22 μm filter and 50 μl was added to each well. Following an incubation period of 120 minutes the medium was gently aspirated. The formed formazan crystals were dissolved in 100 μl DMSO and the absorbance, or optical density (O.D.), was measured with a plate reader (BMG) at 560 nm. The inhibition of proliferation was determined by reporting the O.D. of the treated group (T) with the O.D. of the appropriate control group (C), and expressed as [(1-T/C)×100%].
Therefore, instead of adding the prodrug to the cell culture together with a single batch triphenylphosphine on day 2, the phosphine was added at fixed intervals from day 2 to day 4. Three phosphine dosing schemes were investigated: 5×10 μM, 5×30 μM, and 5×60 μM. The range of the concentrations used for the doxorubicin drugs was 0-0.01-0.1-0.3-1.0-10 μM.
The above phosphine-dosing scheme was compared to a single batch-dosing scheme at the same total amount of phosphine.

[1] = Activation of model azido-prodrug 4 by 3-(diphenylphosphino)benzenesulfonate (5), followed with 1H NMR
Protocol: 9) Activation of model azido-prodrug 4-azidobenzyl N-benzyl carbamate (4) by 3-(diphenylphosphino)benzenesulfonate (5) in two different media.
In DMF/H2O (3.5/1): Prodrug 4 (5.3 mg, 18.8 μmol) was dissolved in 952 μl DMF-d7 and 275 μl D2O. Phosphine 5 (12.1 mg, 33.2 μmol) was added and the reaction was followed with ^1H NMR. The reaction had run to completion within 14 hours as judged from the disappearance of the CH2 azidobenzyl signal at 4.83 ppm and the appearance of the CH2 signal of the corresponding aminobenzylalcohol (7) at 4.64 ppm.
In THF/H2O (1/1): Prodrug 4 (4.8 mg, 17.0 μmol) was dissolved in 275 μl THF-d8 and 275 μl D2O. Phosphine 5 (11.3 mg, 31.0 μmol) was added to the slightly yellow solution after which gas development was observed. The reaction was followed with ^1H NMR and had to run to 50% after 7 hours as judged from the disappearance of the CH2 benzyl signal at 4.38 ppm and the appearance of the CH2 signal of the corresponding free benzylamine (6) at 3.99 ppm.

[2] = for extent of activation reaction: 10 μM prodrug
Protocol: 11) Activation of the doxorubicin prodrug (9) followed with HPLC and LC-MS
The activation was carried out in the following way: a solution of prodrug in water or growth medium was mixed with a solution of triphenylphosphine-3,3′,3″-trisulfonic acid trisodium salt in water or growth medium. Samples were taken from the reaction mixture (at 37 C) every 2 hours and measured in the HPLC or LCMS. Several different concentrations and ratios prodrug/triphenylphosphine were used. The first activation experiment was done in water with a concentration of 100 μM for the prodrug and 200 μM for the phosphine, and monitored with HPLC.
The second activation was done at a 10-fold lower concentration, 10 μM for the prodrug and 20 μM for the phosphine, and monitored with LCMS.
The third and last activation was done in cell growth medium at 10 μM prodrug. […] During this experiment a fresh portion (60 μM) triphenylphosphine was added to the mixture twice a day.

| Compound | anti-proliferative activity (ranking) (A431 cells; MTT) | activity relative to pro-dox (A431 cells; 72 hours, MTT) | time until reaction had run to completion ([1]; DMF/H2O (3.5/1), prodrug 18.8 μmol, phosphine 5 33.2 μmol) [h] | extent of reaction (release of free benzylamine) ([1]; THF/H2O (1/1), after 7 hours, prodrug 17.0 μmol, phosphine 5 31.0 μmol) [%] | increase of activity over pro-dox alone (A431 cells; 72 hours, MTT, pro-dox with 60 μM repetitive dose (5×60 μM) of phosphine) [fold] | activation by a single dose of phosphine compared with sequential additions (A431 cells; identical total phosphine amounts) | extent of activation reaction ([2]; 20 μM phosphine, after 24 hours, LCMS) | extent of activation reaction ([2]; cell growth medium, fresh 60 μM triphenylphosphine added twice a day, after 8 hours) [%] | time until reaction was complete ([2]; water, 37 C, 100 μM prodrug, 200 μM phosphine, HPLC) [h] | doxorubicin formed ([2]; water, 37 C, 100 μM prodrug, 200 μM phosphine, after 8 hours, HPLC) [%] |
| --- | --- | --- | --- | --- | --- | --- | --- | --- | --- | --- |
| COc1cccc2c1C(=O)c1c(O)c3c(c(O)c1C2=O)C[C@@](O)(C(=O)CO)C[C@@H]3O[C@H]1C[C@H](N)[C@H](O)[C@H](C)O1 [Doxorubicin, reference compound] | highest activity | 2 orders of magnitude |  |  |  |  |  |  |  |  |
| [N-]=[N+]=Nc1ccc(COC(=O)NCc2ccccc2)cc1 [prodrug 4, 4-azidobenzyl N-benzyl carbamate] |  |  | ≤ 14 | 50 |  |  |  |  |  |  |
| Azidobenzyl carbamate Doxorubicin [prodrug 9] | lowest anti-proliferative activity |  |  |  | 33 | not nearly as effective | approximately 30% | 85 | 20 | 15 |
